Results taken from patent US5532240A, “Condensed thiophene compound and pharmaceutical use thereof” (Yoshitomi Pharmaceutical Industries, Ltd., priority 1991, dated 1996).

Legend:
[1] = system: catalepsy induced by haloperidol; conditions: preclinical; cited from earlier work
[2] = system: conditioned avoidance response (CAR); conditions: administered with D2 antagonist; cited from earlier work
[3] = system: apomorphine-induced hyperactivity; experiment: Anti-apomorphine action (in mouse); type: in vivo, male dd mice; conditions: oral, 60 min before 0.5 mg/kg s.c. apomorphine hydrochloride, movement lowered by 50%
Procedure: Anti-apomorphine action (in mouse)
Male dd mice at 3 per group were used for the experiment. The test compound was orally administered to the mice, and 60 minutes later, 0.5 mg/kg of apomorphine hydrochloride was subcutaneously administered. the movement for 20 minutes from immediately after the administration of apomorphine hydrochloride was measured using Valimex (Columbus, USA). Each group was tested four times, and the amount of the test compound necessary to lower the movement by 50% than that of a control group was calculated from a graph and taken as ED50.

[4] = target: T1, serotonin 2 (5-HT2) receptor (Rattus norvegicus, UniProt P14842); experiment: Affinity for serotonin 2 receptor (tritiated ketanserin binding); set-up: species or system Wistar rats; conditions: rat hippocampus crude synaptosomes; [3H]ketanserin 0.2 nM; 37° C., 20 min
T1 construct: A crude synaptosome fraction was separated from hippocampus; from tissue; host or cells: hippocampus of 9-10 week-old Wistar rats, crude synaptosome fraction
T1 sequence (P14842 whole entry): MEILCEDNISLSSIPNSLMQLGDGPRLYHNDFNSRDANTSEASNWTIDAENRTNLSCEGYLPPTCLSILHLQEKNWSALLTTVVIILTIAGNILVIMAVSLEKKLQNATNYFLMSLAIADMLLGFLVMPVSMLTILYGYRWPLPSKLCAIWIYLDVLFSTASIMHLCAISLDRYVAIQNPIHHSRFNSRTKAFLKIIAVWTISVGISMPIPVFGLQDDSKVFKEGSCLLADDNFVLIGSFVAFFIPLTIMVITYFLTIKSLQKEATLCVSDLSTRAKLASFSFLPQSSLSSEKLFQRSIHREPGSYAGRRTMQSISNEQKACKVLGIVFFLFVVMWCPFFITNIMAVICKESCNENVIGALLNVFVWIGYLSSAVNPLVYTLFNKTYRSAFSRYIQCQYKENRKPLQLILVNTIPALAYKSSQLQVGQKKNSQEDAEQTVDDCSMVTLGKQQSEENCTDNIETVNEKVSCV
Procedure: Affinity for serotonin 2 receptor
A specific binding of serotonin 2 (5-HT2) receptor was tested according to the method described in Mol. Pharmacol. 21, 301 (1981).
A crude synaptosome fraction was separated from hippocampus of 9-10 week-old Wistar rats, and suspended in 50 mM Tris-HCl buffer (pH 7.7) for the experiment. The test compound at several concentration and tritiated ketanserin (final concentration 0.2 nM) were added to the synaptosome suspension, and each mixture was incubated at 37° C. for 20 minutes. After the incubation, the mixture was filtered with suction through Whatman GF/B (trade mark) glass filter. The filter was washed with 50 mM Tris-HCl buffer (pH 7.7), and the radioactivity of the filter was measured by a liquid scintillation counter. Non-specific binding was determined in the presence of 10^-5 M mianserin. The concentration necessary for 50% inhibition (IC50) was determined on a graph, and inhibition constant (Ki value ) was calculated.

[5] = system: ergometrine-induced head-twitches; experiment: Anti-ergometrine action (head-twitch); type: in vivo, male ddY mice; conditions: Mus musculus; oral, 60 min before 20 mg/kg i.p. ergometrine maleate; head-twitch vanished, Probit
Procedure: Male ddY mice at 12 per group were used for the experiment. The test compound was orally administered to the mice, and 60 minutes later, 20 mg/kg of ergometrine maleate was intraperitoneally administered. The amount of the test compound necessary to vanish the head-twitch reaction for 10 minutes from immediately after the administration of ergometrine maleate was calculated as ED50 value by Probit method.

Acute toxicity = conditions: mouse, in vivo; oral, male ddY mice, observed 5 days; read-out: LD50 (50% lethal dose)
Description: Male ddY mice weighing 20-28 g were used at 10 per group. They were orally administered with the compound of Example 24 and observed for 5 days after the administration.

[6] = target: T2, serotonin 1A (5-HT1A) receptor (Rattus norvegicus, UniProt P19327); experiment: Affinity for serotonin 1A receptor (tritiated 8-OH-DPAT binding); set-up: species or system Wistar rats; conditions: rat hippocampus crude synaptosomes; [3H]8-OH-DPAT 0.2 nM; 37° C., 12 min
T2 construct: A crude synaptosome fraction was separated from hippocampus; from tissue; host or cells: hippocampus of 9-10 week-old Wistar rats, crude synaptosome fraction
T2 sequence (P19327 1-422): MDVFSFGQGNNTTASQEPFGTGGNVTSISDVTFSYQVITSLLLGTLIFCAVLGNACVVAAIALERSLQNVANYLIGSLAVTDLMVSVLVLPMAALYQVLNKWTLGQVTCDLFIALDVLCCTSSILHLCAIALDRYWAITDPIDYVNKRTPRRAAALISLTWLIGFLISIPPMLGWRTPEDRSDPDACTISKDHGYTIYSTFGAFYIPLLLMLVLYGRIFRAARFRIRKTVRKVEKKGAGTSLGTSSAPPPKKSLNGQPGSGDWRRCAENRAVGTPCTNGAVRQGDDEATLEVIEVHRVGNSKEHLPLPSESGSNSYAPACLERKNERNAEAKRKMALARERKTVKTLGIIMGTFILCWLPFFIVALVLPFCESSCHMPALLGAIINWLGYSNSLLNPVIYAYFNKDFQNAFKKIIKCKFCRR
Procedure: Affinity for serotonin 1A receptor
A specific binding of serotonin 1A (5-HT1A) receptor was tested according to the method described in J. Neurochem. 44, 1685 (1985).
A crude synaptosome fraction was separated from hippocampus of 9-10 week-old Wistar rats, and suspended in 50 mM Tris-HCl buffer (pH 7.4) containing 1 mM manganese chloride for the experiment. The test compound at several concentrations and tritiated 8-hydroxy-2-dipropyl-aminotetralin(8-OH-DPAT, final concentration 0.2 nM) were added to the synaptosome suspension, and each mixture was incubated at 37° C. for 12 minutes. After the incubation, the mixture was filtered with suction through Whatman GF/B (trade mark) glass filter. The filter was washed with 50 mM Tris-HCl buffer (pH 7.7), and the radioactivity of the filter was measured by a liquid scintillation counter. Non-specific binding was determined in the presence of 10^-5 M serotonin (5-HT). The concentration necessary for 50% inhibition (IC50) was determined on a graph, and inhibition constant (Ki value) was calculated.

dopamine 2 (D2) receptor = target: T3, dopamine 2 (D2) receptor (Rattus norvegicus, UniProt P61169); experiment: Affinity for dopamine 2 receptor (tritiated spiperone binding); set-up: species or system Wistar rats; conditions: rat corpus striatum synaptosomes; [3H]spiperone 0.2 nM; 37° C., 20 min
T3 construct: A synaptosome fraction was separated from corpus striatum; from tissue; host or cells: corpus striatum of 9-10 week-old Wistar rats, synaptosome fraction
T3 sequence (P61169 whole entry): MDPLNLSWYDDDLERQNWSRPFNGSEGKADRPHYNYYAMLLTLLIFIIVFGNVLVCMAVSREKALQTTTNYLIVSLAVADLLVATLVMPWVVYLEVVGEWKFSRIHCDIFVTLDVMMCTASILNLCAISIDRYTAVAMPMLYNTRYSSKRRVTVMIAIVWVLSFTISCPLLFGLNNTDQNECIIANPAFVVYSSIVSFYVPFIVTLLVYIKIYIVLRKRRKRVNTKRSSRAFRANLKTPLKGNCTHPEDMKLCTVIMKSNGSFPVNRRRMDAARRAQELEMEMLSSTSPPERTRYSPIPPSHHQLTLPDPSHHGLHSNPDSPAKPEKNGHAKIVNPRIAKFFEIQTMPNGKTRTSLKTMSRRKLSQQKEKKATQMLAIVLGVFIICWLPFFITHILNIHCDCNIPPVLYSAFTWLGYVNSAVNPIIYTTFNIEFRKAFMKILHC
Procedure: Affinity for dopamine 2 receptor
A specific binding of dopamine 2 (D2) receptor was tested according to the method described in Eur. J. Pharmacol. 46, 377 (1977).
A synaptosome fraction was separated from corpus striatum of 9-10 week-old Wistar rats, and suspended in 50 mM Tris-HCl buffer (pH 7.1) containing 120 mM sodium chloride, 5 mM potassium chloride, 2 mM calcium chloride, 1 mM magnesium chloride, 10 μM pargyline and 0.1% ascorbic acid for the experiment.
The test compound at several concentrations and tritiated spiperone (final concentration 0.2 nM) were added to the synaptosome suspension, and each mixture was incubated at 37° C. for 20 minutes. After the incubation, the mixture was filtered with suction through Whatman GF/B (trade mark) glass filter. The filter was washed with 50 mM Tris-HCl buffer (pH 7.7), and the radioactivity of the filter was measured by a liquid scintillation counter. Non-specific binding was determined in the presence of 10^-4 M (±)-sulpiride. The concentration necessary for 50% inhibition (IC50) was determined on a graph, and inhibition constant (Ki value) was calculated.

| Compound | effect on catalepsy induced by haloperidol [1] | inhibition of conditioned avoidance response (CAR) [2] | ED50 [3] [mg/kg] | Ki [4] [nM] | ED50 [5] [mg/kg] | LD50 at 120 h (Acute toxicity) [mg/kg] | Ki [6] [nM] | Ki (dopamine 2 (D2) receptor) [nM] |
| --- | --- | --- | --- | --- | --- | --- | --- | --- |
| CCCN(CCC)C1CCc2cccc(O)c2C1 (centres unmarked) [8-OH DPAT, 8-hydroxy-2-dipropyl-aminotetralin] | reverse catalepsy induced by haloperidol | inhibit conditioned avoidance response (CAR) more potent than that of D2 antagonist only | – | – | – | – | – | – |
| CC(=O)N1CCc2c(sc(C)c2CCN2CCC(c3noc4cc(F)ccc34)CC2)C1 [Example 24, 6-acetyl-3-(2-(4-(6-fluoro-1,2-benzisoxazol-3-yl)piperidin-1-yl)ethyl)-4,5,6,7-tetrahydro-2-methylthieno[2,3-c]pyridine] | – | – | 0.39 | 0.062 | 0.37 | 205 | 32 | 0.46 |
